Read-outs that look alike come from different tables or passages of the source. Values belong to the compound of their own block, whether it stands above or below them.
Legend:
[1] = target: T1, rat NPFF2 receptor (Rattus norvegicus, UniProt Q9EQD2); experiment: Competition binding at cloned rat NPFF2 receptor ([125I]1DMeNPFF displacement)
T1 construct: The full-length NPFF2 was amplified from rat spinal cord cDNA; expressed in transfected cells; host or cells: not given
Method: (§1) Transfected cells from culture flasks are scraped into 5 ml of 20 mM Tris-HCl, 5 mM EDTA, pH 7.5, and lysed by sonication. The cell lysates are centrifuged at 1000 rpm for 5 min. at 4° C., and the supernatant is centrifuged at 30,000×g for 20 min. at 4° C. […] Optimal membrane suspension dilutions, defined as the protein concentration required to bind less than 10% of the added radioligand, […], unlabeled compounds, and binding buffer to a final volume of 250 μl. In equilibrium saturation binding assays membrane preparations are incubated in the presence of increasing concentrations of [^3H]-labeled compound.
(§2) Competition assay: 50 pM radioligand, 10-12 points. Binding reaction mixtures are incubated for 2 hr at 25° C., and the reaction stopped by filtration through a double layer of GF filters treated with 0.1% polyethyleneimine, using a cell harvester. Wash buffer: 50 mM Tris-HCl, 0.1% BSA. Radioactivity may be measured by scintillation counting and data are analyzed by a computerized non-linear regression program. Non-specific binding is defined as the amount of radioactivity remaining after incubation of membrane protein in the presence of 1 μM final concentration […]. Protein concentration may be measured by the Bradford method using Bio-Rad Reagent, with bovine serum albumin as a standard.

[2] = target: T1, rat NPFF2 receptor; experiment: Functional assay (agonist potency, intrinsic activity) at cloned rat NPFF2 receptor; assay type: cell-based; details: for rNPFF2 IA: Table 7, intrinsic activity; for Functional Activity rNPFF2 I.A. %: percent of maximum response elicited by neuropeptide FF; for classification as agonist or antagonist at the NPFF2 receptor: agonist: IA>15%, antagonist: Ki≦1.2 mM and IA≦15% at the rat cloned NPFF receptors
[3] = target: T2, rat NPFF1 receptor (Rattus norvegicus, UniProt Q9EP86); experiment: Competition binding at cloned rat NPFF1 receptor ([125I]1DMeNPFF displacement)
T2 construct: expressed in transfected cells; host or cells: not given
Method: as §1, with “radioligand, are” for “radioligand,”, “In equilibrium saturation binding assays membrane preparations are incubated in the presence of increasing concentrations of [^3H]-labeled compound.” left out
as §2

[4] = target: T2, rat NPFF1 receptor; experiment: Functional assay (agonist potency, intrinsic activity) at cloned rat NPFF1 receptor; assay type: cell-based; details: for rNPFF1 IA: Table 7, intrinsic activity; for Functional Activity rNPFF1 I.A. %: percent of maximum response elicited by neuropeptide FF; for classification as agonist or antagonist at the NPFF1 receptor: agonist: IA>15%, antagonist: Ki≦1.2 mM and IA≦15% at the rat cloned NPFF receptors
[5] = target: T3, norepinephrine (NE) transporter (Rattus norvegicus, UniProt Q63380); experiment: Binding at native norepinephrine transporter (NE uptake); details: Table 8
T3 construct: evaluated at native, tissue-derived transporters; from tissue
Method: (§3) Transporters: The binding properties of compounds were evaluated at native, tissue-derived transporters, namely serotonin (5HT) transporter and norepinephrine (NE) transporter, according to protocols described in Owens (1997), the disclosure of which is hereby incorporated by reference in its entirety into this application.
(§4) The binding affinity (Ki) of these compounds were tested according to the protocols described herein at the following receptors; human α1A, α1B, α1D, α2A, α2B, and α2C adrenergic receptors; human Y1, Y2, Y4, and Y5 receptors; and N-Methyl-D-aspartic acid (NMDA) receptor channels. The binding interactions of these compounds were additionally tested at the norepinephrine (NE) transporter (NE uptake) and serotonin (5-hydroxytryptamine (5HT)) transporter (5HT uptake) according to protocols described herein

[6] = target: T4, serotonin (5HT) transporter (Rattus norvegicus, UniProt P31652); experiment: Binding at native serotonin transporter (5HT uptake); details: Table 8
T4 construct: evaluated at native, tissue-derived transporters; from tissue
Method: as §3, §4

[7] = Table 3, recombinant rat NPFF2, read-out: rNPFF2 Ki
[8] = Table 7, agonist potency, read-out: rNPFF2 EC50
[9] = Table 3, recombinant rat NPFF1, read-out: rNPFF1 Ki
[10] = Table 7, agonist potency, read-out: rNPFF1 EC50
[11] = Table 4, read-out: Ki Values rNPFF2
[12] = Table 4, read-out: Functional Activity rNPFF2 EC50
[13] = Table 4, read-out: Ki Values rNPFF1
[14] = Table 4, read-out: Functional Activity rNPFF1 EC50
[15] = Table 5, D-Arg- or D-Phe-containing compounds, read-out: Ki Values rNPFF2
[16] = Table 5, read-out: Functional Activity rNPFF2 EC50
[17] = Table 5, D-Arg- or D-Phe-containing compounds, read-out: Ki Values rNPFF1
[18] = Table 5, read-out: Functional Activity rNPFF1 EC50

T2 sequence (Q9EP86 whole entry): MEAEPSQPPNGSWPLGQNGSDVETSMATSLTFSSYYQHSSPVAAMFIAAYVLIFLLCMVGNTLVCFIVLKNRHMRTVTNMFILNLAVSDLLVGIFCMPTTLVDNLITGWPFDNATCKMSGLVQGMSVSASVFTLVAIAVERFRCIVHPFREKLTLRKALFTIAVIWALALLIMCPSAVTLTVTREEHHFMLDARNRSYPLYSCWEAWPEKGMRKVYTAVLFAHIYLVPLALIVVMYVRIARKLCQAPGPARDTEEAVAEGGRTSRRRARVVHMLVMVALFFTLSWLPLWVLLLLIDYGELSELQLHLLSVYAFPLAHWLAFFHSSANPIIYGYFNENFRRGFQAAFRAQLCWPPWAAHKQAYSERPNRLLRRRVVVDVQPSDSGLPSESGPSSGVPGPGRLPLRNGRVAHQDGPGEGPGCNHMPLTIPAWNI
T1 sequence (Q9EQD2 whole entry): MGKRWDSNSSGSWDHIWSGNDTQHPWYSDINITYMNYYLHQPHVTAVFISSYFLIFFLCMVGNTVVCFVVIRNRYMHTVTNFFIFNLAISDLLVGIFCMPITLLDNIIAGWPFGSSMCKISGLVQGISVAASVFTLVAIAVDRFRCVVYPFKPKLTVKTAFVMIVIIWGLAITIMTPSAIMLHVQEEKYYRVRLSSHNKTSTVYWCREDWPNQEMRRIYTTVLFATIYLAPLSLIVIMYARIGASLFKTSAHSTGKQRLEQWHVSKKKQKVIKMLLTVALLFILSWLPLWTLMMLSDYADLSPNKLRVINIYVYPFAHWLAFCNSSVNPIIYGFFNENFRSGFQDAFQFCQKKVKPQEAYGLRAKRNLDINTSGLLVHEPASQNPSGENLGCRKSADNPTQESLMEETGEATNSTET
T4 sequence (P31652 whole entry): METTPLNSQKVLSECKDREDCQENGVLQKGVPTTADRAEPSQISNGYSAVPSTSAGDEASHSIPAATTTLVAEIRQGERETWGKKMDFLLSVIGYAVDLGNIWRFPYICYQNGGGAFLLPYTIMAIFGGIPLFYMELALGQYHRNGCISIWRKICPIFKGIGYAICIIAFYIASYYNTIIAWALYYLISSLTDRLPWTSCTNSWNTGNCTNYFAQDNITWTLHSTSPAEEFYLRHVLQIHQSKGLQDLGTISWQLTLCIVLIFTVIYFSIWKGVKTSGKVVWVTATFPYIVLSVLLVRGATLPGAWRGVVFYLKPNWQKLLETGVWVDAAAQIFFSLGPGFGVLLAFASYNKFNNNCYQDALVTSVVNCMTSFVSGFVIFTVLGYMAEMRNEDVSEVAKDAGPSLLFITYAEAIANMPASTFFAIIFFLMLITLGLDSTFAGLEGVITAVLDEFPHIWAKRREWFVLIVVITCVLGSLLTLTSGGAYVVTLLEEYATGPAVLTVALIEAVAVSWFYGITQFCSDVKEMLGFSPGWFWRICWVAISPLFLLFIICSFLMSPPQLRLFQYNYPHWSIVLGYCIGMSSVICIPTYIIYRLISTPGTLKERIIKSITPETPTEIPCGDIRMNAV
T3 sequence (Q63380 1-617): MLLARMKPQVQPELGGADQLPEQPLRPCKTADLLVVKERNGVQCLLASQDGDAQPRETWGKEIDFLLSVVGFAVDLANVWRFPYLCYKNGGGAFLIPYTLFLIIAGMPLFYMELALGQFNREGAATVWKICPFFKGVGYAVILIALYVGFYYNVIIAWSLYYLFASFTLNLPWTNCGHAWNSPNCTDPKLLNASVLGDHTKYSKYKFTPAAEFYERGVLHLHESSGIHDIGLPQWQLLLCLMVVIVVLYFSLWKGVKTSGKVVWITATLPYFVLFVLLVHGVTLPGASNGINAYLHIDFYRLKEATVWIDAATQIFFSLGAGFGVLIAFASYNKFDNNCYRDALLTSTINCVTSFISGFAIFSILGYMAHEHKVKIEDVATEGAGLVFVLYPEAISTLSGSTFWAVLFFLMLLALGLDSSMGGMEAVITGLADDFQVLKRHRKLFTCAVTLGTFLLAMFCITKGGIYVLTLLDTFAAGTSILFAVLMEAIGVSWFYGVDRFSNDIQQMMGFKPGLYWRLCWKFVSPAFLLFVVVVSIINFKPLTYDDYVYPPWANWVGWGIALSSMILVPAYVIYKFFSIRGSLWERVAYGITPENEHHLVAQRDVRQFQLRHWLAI

- Ki [1, 7]: 2140 nM
- EC50 [2, 8]: 3160 nM
- rNPFF2 IA [2]: 21% NPFF
- Ki [3, 9]: 316 nM
- EC50 [4, 10]: > 10000 nM
- rNPFF1 IA [4]: Inactive
Compound: Cc1nc(NC(=N)N)nc2ccc(OCCCCCOc3ccccc3)cc12 [Compound 1005A, N-4-methyl-6-[(5-phenoxypentyl)oxy]-2-quinazolinylguanidine]

Compound: Cc1nc(NC(=N)N)nc2ccc(Cl)cc12 [Compound 1013A, N-(6-chloro-4-methyl-2-quinazolinyl)guanidine]
- rNPFF2 IA [2]: 52% NPFF
- Ki [5]: 41200 nM
- Ki [6]: 2020 nM

- Ki [1, 11]: 4120 nM
- Functional Activity rNPFF2 I.A. % ([2]; Table 4): 33%
- EC50 [2, 12]: > 3160 nM
- Ki [3, 13]: 328 nM
- Functional Activity rNPFF1 I.A. % ([4]; Table 4): 78%
- EC50 [4, 14]: 596 nM
Compound: COc1ccc(Br)cc1S(=O)(=O)N[C@@H](CCCNC(=N)N)C(=O)N[C@@H](Cc1ccccc1)C(N)=O [Compound 1025B]

- Ki [1, 7]: 3150 nM
- EC50 [2, 8]: > 10000 nM
- rNPFF2 IA [2]: 31% NPFF
- Ki [3, 9]: 606 nM
- EC50 [4, 10]: > 10000 nM
- rNPFF1 IA [4]: Inactive
Compound: CCc1nc(NC(=N)N)nc2ccc(C)cc12 [Compound 1027A]

- Ki [1, 15]: 2690 nM
- Functional Activity rNPFF2 I.A. % ([2]; Table 5): 86%
- EC50 [2, 16]: > 3160 nM
- Ki [3, 17]: 399 nM
- Functional Activity rNPFF1 I.A. % ([4]; Table 5): 30%
- EC50 [4, 18]: 477 nM
Compound: N=C(N)NCCC[C@H](NS(=O)(=O)c1ccc2ccccc2c1)C(=O)N[C@H](Cc1ccccc1)C(N)=O [Compound 1029B]

- Ki [1, 11]: > 10000 nM
- Functional Activity rNPFF2 I.A. % ([2]; Table 4): 52%
- EC50 [2, 12]: > 3160 nM
- classification as agonist or antagonist at the NPFF2 receptor [2]: agonists
- Functional Activity rNPFF1 I.A. % ([4]; Table 4): 102%
- classification as agonist or antagonist at the NPFF1 receptor [4]: agonists
Compound: COc1ccc(C)cc1S(=O)(=O)N[C@@H](CCCNC(=N)N)C(=O)N[C@@H](Cc1ccccc1)C(N)=O [Compound 2003B]

Compound: Cc1ccc2c(C)nc(NC(=N)N)nc2c1 [Compound 3001A, N-(4,7-dimethyl-2-quinazolinyl)guanidine]
- classification as agonist or antagonist at the NPFF2 receptor [2]: antagonists
- Ki [5]: 21400 nM
- Ki [6]: 22600 nM
- classification as agonist or antagonist at the NPFF1 receptor [4]: antagonists

- Ki [1, 15]: 2860 nM
- Functional Activity rNPFF2 I.A. % ([2]; Table 5): 79%
- EC50 [2, 16]: 378 nM
- classification as agonist or antagonist at the NPFF2 receptor [2]: agonist
- Ki [3, 17]: 46 nM
- Functional Activity rNPFF1 I.A. % ([4]; Table 5): 1%
- EC50 [4, 18]: > 10000 nM
- classification as agonist or antagonist at the NPFF1 receptor [4]: antagonist
Compound: N=C(N)NCCC[C@@H](NS(=O)(=O)c1cccc2ccccc12)C(=O)N[C@@H](Cc1ccccc1)C(N)=O [Compound 3001B]

- Ki [1, 15]: > 10000 nM
- Functional Activity rNPFF2 I.A. % ([2]; Table 5): 61%
- EC50 [2, 16]: 2760 nM
- Ki [3, 17]: 1290 nM
- Functional Activity rNPFF1 I.A. % ([4]; Table 5): 47%
- EC50 [4, 18]: 644 nM
Compound: N1-[(1R)-2-Amino-1-benzyl-2-oxoethyl]-(2S)-{[amino(imino)methyl]amino}-2-[2, 6-difluorophenyl)sulfonyl]amino]pentanamide [Compound 1032B]

- Ki [1, 15]: 6030 nM
- Functional Activity rNPFF2 I.A. % ([2]; Table 5): 24%
- EC50 [2, 16]: 1570 nM
- Ki [3, 17]: 2570 nM
- Functional Activity rNPFF1 I.A. % ([4]; Table 5): 32%
- EC50 [4, 18]: 856 nM
Compound: N1-[(1R)-2-Amino-1-benzyl-2-oxoethyl]-(2S)-{[amino(imino)methyl]amino}-2-[2-bromophenyl) sulfonyl]amino}pentanamide [Compound 1031B]

- Ki [1, 15]: 6200 nM
- Functional Activity rNPFF2 I.A. % ([2]; Table 5): 71%
- EC50 [2, 16]: 1640 nM
- Ki [3, 17]: 251 nM
- Functional Activity rNPFF1 I.A. % ([4]; Table 5): 35%
- EC50 [4, 18]: 655 nM
Compound: N1-[(1S)-2-Amino-1-benzyl-2-oxoethyl]-(2R)-{[amino(imino)methyl]amino}-2-2-bromophenyl) sulfonyl]amino}pentanamide [Compound 1030B]

- Ki [1, 11]: 5400 nM
- Functional Activity rNPFF2 I.A. % ([2]; Table 4): 43%
- EC50 [2, 12]: > 3160 nM
- Ki [3, 13]: 486 nM
- Functional Activity rNPFF1 I.A. % ([4]; Table 4): 69%
- EC50 [4, 14]: 720 nM
Compound: N1-[(1S)-2-Amino-1-benzyl-2-oxoethyl]-(2S)-{[amino(imino)methyl]amino}-2-[pentafluorophenyl)sulfonyl]amino}pentanamide [Compound 1024B]

Source: patent US20030176314A1, “Compounds for the treatment of pain” (priority 2001, published 2003)
